Our source for the IC50 and Papp A→B values is US11603359B2, “Benzothiadiazepine compounds and their use as bile acid modulators” (Albireo AB, priority 2019, dated 2023).

Usually IC50 stands for the concentration that gives 50% inhibition. In general, Papp A→B refers to the apparent permeability from the apical to the basolateral side of a cell layer. A low value points to poor permeation.

The target in data set [1] is T1, human IBAT (Homo sapiens, UniProt Q12908).
T1 construct: expressed in transfected cells; Puromycin-selected IBAT-overexpressing cells
T1 sequence (Q12908 1-348): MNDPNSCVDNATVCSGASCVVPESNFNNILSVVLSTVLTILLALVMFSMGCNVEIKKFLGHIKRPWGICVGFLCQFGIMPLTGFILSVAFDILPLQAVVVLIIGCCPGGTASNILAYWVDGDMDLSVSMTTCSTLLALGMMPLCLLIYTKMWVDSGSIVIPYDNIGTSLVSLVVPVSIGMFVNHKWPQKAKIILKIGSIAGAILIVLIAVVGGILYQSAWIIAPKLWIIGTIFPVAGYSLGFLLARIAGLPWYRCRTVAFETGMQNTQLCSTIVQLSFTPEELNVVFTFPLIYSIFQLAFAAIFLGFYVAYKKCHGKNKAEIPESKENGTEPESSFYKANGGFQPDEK
The data set can be described thus: IBAT (h/m) assay, human IBAT-overexpressing cells, 3H-taurocholic acid uptake. Particulars: 0.25 μM 3H-taurocholic acid + 5 μM cold taurocholic acid, 20 minutes, read-out: hIBAT IC50. It is filed as cell-based. Here is the method: 10,000 cells (Human or Mouse IBAT-overexpressing cells) were seeded in 96-wells plate (Corning CLS3809) in 200 μL MEM-alpha medium (Gibco 12571-063) supplemented with 10% FBS (Gibco 10438026) containing Puromycin (Gibco A1113803) (10 μg/mL) and incubated at 37° C. in 5% CO2 for 48 hours. After incubation, media was decanted from the wells and cells were washed two times with 300 μL of basal MEM-alpha medium (FBS-free). After decanting basal MEM-alpha medium each time, plates were tapped against paper towel to ensure maximum removal of residual media. Test inhibitor dilutions (highest test concentration being 10 μM, 3-fold serial dilution, 10 points) prepared in DMSO (Sigma D2650) were added in incubation mix (maintaining 0.2% final DMSO concentration) containing 0.25 μM 3H-taurocholic acid (ARC ART-1368) and 5 μM of cold taurocholic acid (Sigma T4009). 50 μL of incubation mix containing test inhibitors was then added to the wells (in duplicate) and the plates were incubated for 20 minutes in a CO2 incubator at 37° C. After incubation, the reaction was stopped by keeping the plates on ice water mix for 2-3 minutes and then the incubation mix was aspirated completely from the wells. The wells were washed two times with 250 μL of chilled unlabelled 1 mM taurocholic acid dissolved in HEPES (Gibco 15630080)-buffered (10 mM) HBSS (Gibco 14175079) (pH 7.4). The plates were tapped against a paper towel after every wash to ensure maximum removal of blocking buffer.
100 μL of MicroScint-20 (PerkinElmer 6013621) was added to the wells and kept overnight at room temperature before reading the plates in TopCount NXT™ Microplate Scintillation and Luminescence Counter from PerkinElmer under 3H Test protocol (set at 120 seconds reading time per well).
All test compounds were provided in powder form at room temperature. 10 mM DMSO stocks of the test compounds were prepared, aliquoted and stored at −20° C. From the 10 mM DMSO stock of the compounds, a 3-fold serial dilution in DMSO was prepared to get a total of 10 dilutions of the test compounds. 0.5 μL of this dilution in DMSO was added to 250 μL of FBS-free basal media containing 3H-taurocholic acid and cold taurocholic acid to prepare the incubation mixture.

A short description of data set [2]: Bidirectional permeability assay (Caco-2 cells). It is filed as in vitro ADME. Particulars: human, pH 7.4, Caco-2 monolayers, absorptive direction (A2B), FaSSIF donor buffer. Here is the method: Caco-2 cells (Evotec) were seeded at a density of 70,000 cells/well in Millicell® 24-well cell culture insert plates and maintained in an incubator (37° C., 5% CO2, 95% RH) for 21 days with media change on alternate days.
Stock solutions (10 mM) of the test compounds, atenolol (low permeability marker), propranolol (high permeability marker) and digoxin (substrate for P-gp transport pathway) were prepared in dimethylsulfoxide (DMSO). An intermediate stock solution (1 mM) was prepared by diluting 10 μL of 10 mM master stock solution with 90 μL of neat DMSO. A working stock solution (10 μM) was prepared by diluting 50 μL of 1 mM with 4950 μL of FaSSIF buffer. Post addition of compounds to the FaSSIF, samples were subjected to sonication for 2 hours, and centrifuged at 4000 RPM for 30 minutes at 37° C. The 4 mL of resultant supernatant was directly used in the assay. The final DMSO concentration in the transport experiments was 1%.
On the day of assay, Caco-2 monolayers were washed twice with transport buffer (HBSS, pH 7.4) and pre-incubated for 30 min (37° C., 5% CO2, 95% RH) in an incubator. The electrical resistance of the monolayers was measured with a Millicell®—ERS system. Monolayers with trans-epithelial electrical resistance (TEER) values greater than 350 ohm·cm^2 were selected for the assay.
The assay was conducted in absorptive direction (A2B) and secretory (B2A) directions. Transport experiments were initiated by addition of transport assay buffer (FaSSIF buffer prepared in HBSS) consisting of compounds to the donor compartment (apical chamber A-B; basolateral chamber B-A) in duplicate (n=2) wells. Drug free HBSS buffer (pH 7.4) containing 1% bovine serum albumin (BSA) was introduced to the receiver (A-B-basolateral; B-A-Apical) compartments. The volumes of apical and basolateral compartments were 0.4 and 0.8 mL, respectively. After adding dosing solution, plates were incubated in an incubator for 120 minutes at 37° C. After 120 minutes, donor and receiver samples were collected and matrix matched (1:1, 30 μL study sample+30 μL blank buffer) with the opposite buffer. Dosing samples matrix matched (1:1, 30 μL study sample+30 μL blank buffer) with the opposite buffer. Samples were processed by adding acetonitrile containing internal standard (60 μL study sample+200 μL acetonitrile containing internal standard—Tolbutamide, 500 ng/mL). Samples were vortexed and centrifuged at 4000 rpm for 10 minutes. The obtained supernatant (100 μL) was diluted with 100 μL of water and transferred to fresh 96 well plates. The concentration of compounds in the samples was analyzed by liquid chromatography tandem mass spectrometry (LC-MS/MS) method using discovery grade bio-analytical method, as applicable.
The mean apparent permeability (Papp, ×10^−6 cm/sec) of the test compounds, atenolol, propranolol and digoxin were calculated as follows:
[formula] where dq/dt=rate of transport (rate of transport of compound in the receiver compartment), C0=initial concentration in the donor compartment, A=surface area of the effective filter membrane.

For the molecule `CCCCC1(CCCC)CN(c2ccccc2)c2cc(SC)c(OCC(O)C(=O)O)cc2S(=O)(=O)N1` (racemic) [Example 5, 3-((3,3-dibutyl-7-(methylthio)-1,1-dioxido-5-phenyl-2,3,4,5-tetrahydro-1,2,5-benzothiadiazepin-8-yl)oxy)-2-hydroxypropanoic acid], in data set [1], the IC50 was 5 nM. The Papp A→B at 120 min, 10 µM in data set [2] was found to be 1 ×10⁻⁶ cm/s.

`CCCCC1(CC)CN(c2ccccc2)c2cc(N(C)C)c(OCCC(=O)O)cc2S(=O)(=O)N1` (racemic) [Example 11, 3-((3-Butyl-7-(dimethylamino)-3-ethyl-1,1-dioxido-5-phenyl-2,3,4,5-tetrahydro-1,2,5-benzothiadiazepin-8-yl)oxy)propanoic acid]: in data set [1], the IC50 is 3 nM. This molecule displayed a Papp A→B at 120 min, 10 µM in data set [2] of 13.1 ×10⁻⁶ cm/s.

Regarding `CCCCC1(CC)CN(c2ccccc2)c2cc(SC)c(OCCC(=O)O)cc2S(=O)(=O)N1` (single isomer, unassigned) [Example 4, 3-((3-butyl-3-ethyl-7-(methylthio)-1,1-dioxido-5-phenyl-2,3,4,5-tetrahydro-1,2,5-benzothiadiazepin-8-yl)oxy)propanoic acid], the IC50 in data set [1] worked out at 2 nM. Also, the Papp A→B at 120 min, 10 µM in data set [2] came to 7.6 ×10⁻⁶ cm/s.

Regarding `CCCCC1(CCCC)CN(c2ccccc2)c2cc(SC)c(OCC(O)C(=O)O)cc2S(=O)(=O)N1` (single isomer, unassigned) [Example 7, 3-((3,3-dibutyl-7-(methylthio)-1,1-dioxido-5-phenyl-2,3,4,5-tetrahydro-1,2,5-benzothiadiazepin-8-yl)oxy)-2-hydroxypropanoic acid], the IC50 in data set [1] stood at 2 nM. The Papp A→B at 120 min, 10 µM in data set [2] was 0.4 ×10⁻⁶ cm/s.

With `CCCCC1(CC)CN(c2ccccc2)c2cc(N(C)C)c(OCCC(=O)O)cc2S(=O)(=O)N1` (single isomer, unassigned) [Example 12, 3-((3-butyl-7-(dimethylamino)-3-ethyl-1,1-dioxido-5-phenyl-2,3,4,5-tetrahydro-1,2,5-benzothiadiazepin-8-yl)oxy)propanoic acid], the IC50 in data set [1] was 3 nM. The same molecule yielded a Papp A→B at 120 min, 10 µM in data set [2] of 14.2 ×10⁻⁶ cm/s.

For `CCCCC1(CCCC)CN(c2ccccc2)c2cc(SC)c(OCCC(=O)O)cc2S(=O)(=O)N1` [Example 1, 3-((3,3-Dibutyl-7-(methylthio)-1,1-dioxido-5-phenyl-2,3,4,5-tetrahydro-1,2,5-benzothiadiazepin-8-yl)oxy)propanoic acid], the IC50 in data set [1] worked out at 7 nM. Also, in data set [2], the apparent permeability from apical to basolateral (Papp A→B) at 120 min, 10 µM stood at 9.2 ×10⁻⁶ cm/s.

As for `CCCCC1(CCCC)CN(c2ccccc2)c2cc(SC)c(OC(C)CC(=O)O)cc2S(=O)(=O)N1` (stereo not drawn) [Example 8, 3-((3,3-Dibutyl-7-(methylthio)-1,1-dioxido-5-phenyl-2,3,4,5-tetrahydro-1,2,5-benzothiadiazepin-8-yl)oxy)butanoic acid], the IC50 in data set [1] was determined as 12 nM. In data set [2], this molecule showed a Papp A→B at 120 min, 10 µM of 9.5 ×10⁻⁶ cm/s.

Consider `CCCCC1(CCCC)CN(c2ccccc2)c2cc(Cl)c(OCCC(=O)O)cc2S(=O)(=O)N1` [Example 9, 3-((3,3-dibutyl-7-chloro-1,1-dioxido-5-phenyl-2,3,4,5-tetrahydro-1,2,5-benzothiadiazepin-8-yl)oxy)propanoic acid], for which the IC50 in data set [1] was 21 nM. In data set [2], this molecule showed a Papp A→B at 120 min, 10 µM of 10 ×10⁻⁶ cm/s.

`CCCCC1(CCCC)CN(c2ccc(O)cc2)c2cc(SC)c(OCCC(=O)O)cc2S(=O)(=O)N1` [Example 10, 3-((3,3-dibutyl-5-(4-hydroxyphenyl)-7-(methylthio)-1,1-dioxido-2,3,4,5-tetrahydro-1,2,5-benzothiadiazepin-8-yl)oxy)propanoic acid]: the IC50 in data set [1] worked out at 2 nM. For the same molecule, in data set [2], the Papp A→B at 120 min, 10 µM turned out to be 2.1 ×10⁻⁶ cm/s.
